Laboratory results reported in patent publication US10344060B2 (priority 2013, dated 2019).
“And” between values parts separate entries of the source, which are not always exact repeats. Identical values can stand only once. Like-named read-outs stand apart in the source and are kept apart here.

What was measured:
Test in all cases: cell-based
[1] = biological target: T1, hNav1.7 (Homo sapiens, UniProt Q15858); details: for IC50: read-out: IC50 (μM) Nav1.7
[2] = biological target: hNav1.5 (Homo sapiens, UniProt Q14524); details: read-out: IC50 (μM) Nav1.5
[3] = biological target: T2, hNav1.4 (Homo sapiens, UniProt P35499); type: cell-based; details: for IC50: IonWorks Quattro, read-out: IC50 (μM) Nav1.4; for Nav1.4/Nav1.7: ratio of IonWorks Quattro IC50 values
[4] = biological target: hNav1.3 (Homo sapiens, UniProt Q9NY46); details: IonWorks Quattro, read-out: IC50 (μM) Nav1.3
[5] = biological target: T1, hNav1.7; type: cell-based; details: PatchXpress, read-out: PX hNav1.7 Tonic IC50
[6] = biological target: T2, hNav1.4; type: cell-based; details: Table 12; for IC50: PatchXpress, tonic block, read-out: PX hNav1.4 Tonic IC50; for Nav1.4/Nav1.7: ratio of PX tonic IC50 values
[7] = biological target: hNav1.6 (Homo sapiens, UniProt Q9UQD0); type: cell-based; details: Table 15; for Nav1.6/Nav1.7: ratio of PX tonic IC50 values; for IC50: read-out: PX hNav1.6 Tonic IC50
hNav1.6, sequence (Q9UQD0 whole entry): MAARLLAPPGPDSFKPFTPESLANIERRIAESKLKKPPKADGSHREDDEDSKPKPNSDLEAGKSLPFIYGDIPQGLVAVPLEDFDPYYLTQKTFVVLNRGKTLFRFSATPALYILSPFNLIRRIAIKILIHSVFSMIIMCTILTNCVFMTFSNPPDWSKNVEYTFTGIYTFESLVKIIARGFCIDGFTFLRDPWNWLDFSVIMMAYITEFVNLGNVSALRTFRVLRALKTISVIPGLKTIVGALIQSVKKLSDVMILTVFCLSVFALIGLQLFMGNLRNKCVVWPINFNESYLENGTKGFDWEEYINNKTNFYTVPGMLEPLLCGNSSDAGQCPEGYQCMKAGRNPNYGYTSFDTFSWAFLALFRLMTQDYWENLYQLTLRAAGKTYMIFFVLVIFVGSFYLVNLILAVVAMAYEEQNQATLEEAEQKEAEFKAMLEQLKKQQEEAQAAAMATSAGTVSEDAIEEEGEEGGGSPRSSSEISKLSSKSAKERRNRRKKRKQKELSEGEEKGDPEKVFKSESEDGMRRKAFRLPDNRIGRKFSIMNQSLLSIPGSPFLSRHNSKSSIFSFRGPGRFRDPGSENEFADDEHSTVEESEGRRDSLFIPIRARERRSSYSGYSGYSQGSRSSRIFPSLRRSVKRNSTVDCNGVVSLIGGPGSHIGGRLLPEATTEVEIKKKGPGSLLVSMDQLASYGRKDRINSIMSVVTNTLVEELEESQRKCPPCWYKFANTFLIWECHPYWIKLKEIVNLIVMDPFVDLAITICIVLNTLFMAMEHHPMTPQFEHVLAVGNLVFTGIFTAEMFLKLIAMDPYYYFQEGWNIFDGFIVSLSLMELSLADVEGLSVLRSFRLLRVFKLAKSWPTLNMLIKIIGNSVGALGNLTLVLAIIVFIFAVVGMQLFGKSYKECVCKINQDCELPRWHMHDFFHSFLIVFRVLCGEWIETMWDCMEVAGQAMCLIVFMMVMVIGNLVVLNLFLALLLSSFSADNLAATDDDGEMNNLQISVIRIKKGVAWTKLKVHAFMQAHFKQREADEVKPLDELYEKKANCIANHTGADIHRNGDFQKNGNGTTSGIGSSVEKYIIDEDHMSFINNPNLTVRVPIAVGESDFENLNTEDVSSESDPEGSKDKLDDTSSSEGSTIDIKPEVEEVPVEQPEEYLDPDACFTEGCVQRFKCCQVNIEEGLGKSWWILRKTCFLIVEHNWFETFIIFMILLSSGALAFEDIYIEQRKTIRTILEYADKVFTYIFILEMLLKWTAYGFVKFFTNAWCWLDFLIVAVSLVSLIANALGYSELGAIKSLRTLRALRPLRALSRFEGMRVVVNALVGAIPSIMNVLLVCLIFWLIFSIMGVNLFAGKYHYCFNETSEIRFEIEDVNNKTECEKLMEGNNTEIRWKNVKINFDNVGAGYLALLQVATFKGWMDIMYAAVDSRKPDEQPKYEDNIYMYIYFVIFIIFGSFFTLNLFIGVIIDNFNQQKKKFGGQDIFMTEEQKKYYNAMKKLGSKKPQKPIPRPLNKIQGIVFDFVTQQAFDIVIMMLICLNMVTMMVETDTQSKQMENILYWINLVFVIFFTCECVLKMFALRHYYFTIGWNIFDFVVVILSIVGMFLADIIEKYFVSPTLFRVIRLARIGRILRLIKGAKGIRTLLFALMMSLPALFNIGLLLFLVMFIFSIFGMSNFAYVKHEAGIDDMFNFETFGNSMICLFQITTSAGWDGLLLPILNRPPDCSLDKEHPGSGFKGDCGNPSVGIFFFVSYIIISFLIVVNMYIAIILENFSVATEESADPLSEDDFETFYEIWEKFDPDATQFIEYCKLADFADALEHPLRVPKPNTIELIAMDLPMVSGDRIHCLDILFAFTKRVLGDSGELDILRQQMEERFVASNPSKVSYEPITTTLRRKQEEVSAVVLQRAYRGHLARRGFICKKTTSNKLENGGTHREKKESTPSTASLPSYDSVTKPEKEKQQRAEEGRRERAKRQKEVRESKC

hNav1.3, sequence (Q9NY46 whole entry): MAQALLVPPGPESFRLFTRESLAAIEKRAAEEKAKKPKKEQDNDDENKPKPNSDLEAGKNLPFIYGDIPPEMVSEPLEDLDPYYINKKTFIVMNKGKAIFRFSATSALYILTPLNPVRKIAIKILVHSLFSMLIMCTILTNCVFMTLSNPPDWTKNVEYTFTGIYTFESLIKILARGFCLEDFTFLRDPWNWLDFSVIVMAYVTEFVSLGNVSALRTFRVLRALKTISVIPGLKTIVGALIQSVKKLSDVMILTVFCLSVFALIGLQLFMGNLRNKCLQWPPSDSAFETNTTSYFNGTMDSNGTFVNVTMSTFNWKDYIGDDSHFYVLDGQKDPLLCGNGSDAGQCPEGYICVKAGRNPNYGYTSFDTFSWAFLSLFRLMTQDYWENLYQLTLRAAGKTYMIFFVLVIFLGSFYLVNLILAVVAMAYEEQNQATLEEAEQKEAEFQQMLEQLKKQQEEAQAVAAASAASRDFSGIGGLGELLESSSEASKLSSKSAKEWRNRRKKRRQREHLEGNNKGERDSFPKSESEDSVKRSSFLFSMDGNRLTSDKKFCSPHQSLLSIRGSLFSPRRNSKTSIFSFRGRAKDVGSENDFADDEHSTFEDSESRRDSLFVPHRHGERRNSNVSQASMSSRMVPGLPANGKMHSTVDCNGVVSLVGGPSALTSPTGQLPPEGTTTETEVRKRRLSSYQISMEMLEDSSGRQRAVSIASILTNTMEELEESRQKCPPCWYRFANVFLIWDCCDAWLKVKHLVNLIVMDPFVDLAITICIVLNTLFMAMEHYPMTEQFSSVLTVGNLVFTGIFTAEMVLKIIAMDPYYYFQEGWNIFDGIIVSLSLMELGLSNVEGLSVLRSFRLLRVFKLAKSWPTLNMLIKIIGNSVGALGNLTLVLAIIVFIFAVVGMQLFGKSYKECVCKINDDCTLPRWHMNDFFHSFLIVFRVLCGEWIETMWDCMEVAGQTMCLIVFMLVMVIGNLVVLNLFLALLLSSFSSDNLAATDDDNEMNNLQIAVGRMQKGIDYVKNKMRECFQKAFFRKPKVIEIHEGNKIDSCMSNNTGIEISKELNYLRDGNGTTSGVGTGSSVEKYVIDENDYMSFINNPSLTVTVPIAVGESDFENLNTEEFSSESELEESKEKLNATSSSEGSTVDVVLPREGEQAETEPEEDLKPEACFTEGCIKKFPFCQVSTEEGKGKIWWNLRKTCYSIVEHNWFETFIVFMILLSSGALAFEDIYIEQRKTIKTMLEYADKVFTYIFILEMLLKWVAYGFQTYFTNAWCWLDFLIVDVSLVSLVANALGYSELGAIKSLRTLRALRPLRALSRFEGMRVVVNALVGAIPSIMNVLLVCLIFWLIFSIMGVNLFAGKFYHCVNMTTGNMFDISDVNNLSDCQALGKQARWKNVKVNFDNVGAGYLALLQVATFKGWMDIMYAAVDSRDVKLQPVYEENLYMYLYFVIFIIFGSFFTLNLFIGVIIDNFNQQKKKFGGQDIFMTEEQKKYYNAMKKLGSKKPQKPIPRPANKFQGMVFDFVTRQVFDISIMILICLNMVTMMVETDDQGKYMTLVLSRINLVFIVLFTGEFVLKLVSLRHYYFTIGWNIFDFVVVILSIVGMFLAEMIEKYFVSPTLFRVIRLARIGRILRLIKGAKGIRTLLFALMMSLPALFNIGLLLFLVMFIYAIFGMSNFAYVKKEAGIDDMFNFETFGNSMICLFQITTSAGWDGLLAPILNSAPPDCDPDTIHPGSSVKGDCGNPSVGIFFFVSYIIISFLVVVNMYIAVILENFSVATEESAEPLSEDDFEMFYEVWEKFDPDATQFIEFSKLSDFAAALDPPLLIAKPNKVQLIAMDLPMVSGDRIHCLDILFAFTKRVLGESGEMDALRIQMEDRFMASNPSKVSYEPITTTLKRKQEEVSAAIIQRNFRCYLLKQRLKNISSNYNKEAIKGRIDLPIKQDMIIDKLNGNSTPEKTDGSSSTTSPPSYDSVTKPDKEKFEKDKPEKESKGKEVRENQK

CC[C@H](C)[C@H](NC(=O)[C@@H](NC(=O)[C@H](CCCCN)NC(=O)[C@H](CCCNC(=N)N)NC(=O)[C@@H]1CSSC[C@@H]2NC(=O)[C@H](C)NC(=O)[C@H](CCCNC(=N)N)NC(=O)[C@H](CCCCN)NC(=O)[C@H](CCCCN)NC(=O)[C@H](CC(=O)O)NC(=O)[C@@H]3CSSC[C@H](NC(=O)[C@H](CCCNC(=N)N)NC(=O)[C@H](CC(C)C)NC(=O)CNC(=O)[C@H](CCC(=O)O)NC(=O)[C@H](CSSC[C@H](NC(=O)[C@@H](N)Cc4ccc(O)cc4)C(=O)N[C@@H](CCC(N)=O)C(=O)N[C@@H](CCCCN)C(=O)N[C@@H](Cc4c[nH]c5ccccc45)C(=O)N[C@@H](CCSC)C(=O)N[C@@H](Cc4c[nH]c5ccccc45)C(=O)N[C@@H]([C@@H](C)O)C(=O)N3)NC2=O)C(=O)N[C@@H](CCCCN)C(=O)N[C@@H](CC(C)C)C(=O)N[C@@H](Cc2c[nH]c3ccccc23)C(=O)N1)[C@@H](C)CC)C(N)=O [compound 78]
IC50 [1]: 0.008 µM
IC50 ([2]; IonWorks Quattro, Table 6): 1.1 µM
IC50 ([3]; Table 6): 0.11 µM
Nav1.4/Nav1.7 ([3]; Table 6): 13
IC50 ([4]; Table 6): 0.05 µM

CC[C@H](C)[C@H](NC(=O)[C@H](CCCNC(=N)N)NC(=O)[C@H](CCCCN)NC(=O)[C@H](CCCNC(=N)N)NC(=O)[C@@H]1CSSC[C@@H]2NC(=O)[C@H](C)NC(=O)[C@H](CCCNC(=N)N)NC(=O)[C@H](CCCCN)NC(=O)[C@H](CO)NC(=O)[C@H](CC(=O)O)NC(=O)[C@@H]3CSSC[C@H](NC(=O)[C@H](CCCNC(=N)N)NC(=O)[C@H](CC(C)C)NC(=O)CNC(=O)[C@H](CCC(=O)O)NC(=O)[C@H](CSSC[C@H](NC(=O)[C@@H](N)Cc4ccc(O)cc4)C(=O)N[C@@H](CCC(N)=O)C(=O)N[C@@H](CCCCN)C(=O)N[C@@H](Cc4c[nH]c5ccccc45)C(=O)N[C@@H](CCSC)C(=O)N[C@@H](Cc4c[nH]c5ccccc45)C(=O)N[C@@H]([C@@H](C)O)C(=O)N3)NC2=O)C(=O)N[C@@H](CCCCN)C(=O)N[C@@H](CC(C)C)C(=O)N[C@@H](Cc2c[nH]c3ccccc23)C(=O)N1)C(N)=O [compound 108]
IC50 ([2]; IonWorks Quattro, Table 6): 1.8 µM
IC50 ([3]; Table 6): 0.14 µM
IC50 ([4]; Table 6): 0.06 µM

CC[C@H](C)[C@H](NC(=O)[C@@H](NC(=O)[C@H](CCCCN)NC(=O)[C@H](CCCNC(=N)N)NC(=O)[C@@H]1CSSC[C@@H]2NC(=O)[C@H](C)NC(=O)[C@H](CCCNC(=N)N)NC(=O)[C@H](CCCCN)NC(=O)[C@H](CO)NC(=O)[C@H](CC(=O)O)NC(=O)[C@@H]3CSSC[C@H](NC(=O)[C@H](CCCNC(=N)N)NC(=O)[C@H](CC(C)C)NC(=O)CNC(=O)[C@H](CCC(=O)O)NC(=O)[C@H](CSSC[C@H](NC(=O)[C@@H](N)Cc4ccc(O)cc4)C(=O)N[C@@H](CCC(N)=O)C(=O)N[C@@H](CCCCN)C(=O)N[C@@H](Cc4c[nH]c5ccccc45)C(=O)N[C@@H](CCSC)C(=O)N[C@@H](Cc4c[nH]c5ccccc45)C(=O)N[C@@H]([C@@H](C)O)C(=O)N3)NC2=O)C(=O)N[C@@H](CCCCN)C(=O)N[C@@H](CC(C)C)C(=O)N[C@@H](Cc2c[nH]c3ccccc23)C(=O)N1)[C@@H](C)CC)C(=O)O [compound 1]
IC50 [1]: 0.17 µM
IC50 ([2]; IonWorks Quattro, Table 6): > 5 µM
IC50 ([5]; tonic, Table 11): 13.1 nM

CC[C@H](C)[C@H](NC(=O)[C@@H](NC(=O)[C@H](CCCCN)NC(=O)[C@H](CCCNC(=N)N)NC(=O)[C@@H]1CSSC[C@@H]2NC(=O)[C@H](C)NC(=O)[C@H](CCCNC(=N)N)NC(=O)[C@H](CCCCN)NC(=O)[C@H](CO)NC(=O)[C@H](CC(=O)O)NC(=O)[C@@H]3CSSC[C@H](NC(=O)[C@H](CCC(=O)O)NC(=O)[C@H](CC(C)C)NC(=O)CNC(=O)[C@H](CCC(=O)O)NC(=O)[C@H](CSSC[C@H](NC(=O)[C@@H](N)Cc4ccc(O)cc4)C(=O)N[C@@H](CCC(N)=O)C(=O)N[C@@H](CCCCN)C(=O)N[C@@H](Cc4c[nH]c5ccccc45)C(=O)N[C@@H](CCSC)C(=O)N[C@@H](Cc4c[nH]c5ccccc45)C(=O)N[C@@H](Cc4cn(CCCOCCOCCOCCOCCOCCOCCOCCOCCOCCOCCN)nn4)C(=O)N3)NC2=O)C(=O)N[C@@H](CCCCN)C(=O)N[C@@H](CC(C)C)C(=O)N[C@@H](Cc2c[nH]c3ccccc23)C(=O)N1)[C@@H](C)CC)C(N)=O [compound 171]
IC50 ([2]; IonWorks Quattro, Table 9): 18.7 µM
IC50 ([3]; Table 9): > 5 µM
Nav1.4/Nav1.7 ([3]; Table 9): 1
IC50 ([4]; Table 9): > 5 µM

CC[C@H](C)[C@H](NC(=O)CNC(=O)[C@H](CCCCN)NC(=O)[C@H](CCCNC(=N)N)NC(=O)[C@@H]1CSSC[C@@H]2NC(=O)[C@H](C)NC(=O)[C@H](CCCNC(=N)N)NC(=O)[C@H](CCCCN)NC(=O)[C@H](CO)NC(=O)[C@H](CC(=O)O)NC(=O)[C@@H]3CSSC[C@H](NC(=O)[C@H](CCC(=O)O)NC(=O)[C@H](CC(C)C)NC(=O)CNC(=O)[C@H](CCC(=O)O)NC(=O)[C@H](CSSC[C@H](NC(=O)[C@@H](N)Cc4ccc(O)cc4)C(=O)N[C@@H](CCC(N)=O)C(=O)N[C@@H](CCCCN)C(=O)N[C@@H](Cc4c[nH]c5ccccc45)C(=O)N[C@@H](CCSC)C(=O)N[C@@H](Cc4c[nH]c5ccccc45)C(=O)N[C@@H]([C@@H](C)O)C(=O)N3)NC2=O)C(=O)N[C@@H](CCCCN)C(=O)N[C@@H](CC(C)C)C(=O)N[C@@H](Cc2c[nH]c3ccccc23)C(=O)N1)C(N)=O [compound 134]
Nav1.4/Nav1.7 ([1]; ratio of IonWorks Quattro IC50 values, Nav1.4 over Nav1.7): 17 and 13
IC50 [2]: 11.1 µM

CC[C@H](C)[C@H](NC(=O)[C@H](CCCCN)NC(=O)[C@H](CCCNC(=N)N)NC(=O)[C@@H]1CSSC[C@@H]2NC(=O)[C@H](C)NC(=O)[C@H](CCCNC(=N)N)NC(=O)[C@H](CCCCN)NC(=O)[C@H](CO)NC(=O)[C@H](CC(=O)O)NC(=O)[C@@H]3CSSC[C@H](NC(=O)[C@H](CCC(=O)O)NC(=O)[C@H](CC(C)C)NC(=O)CNC(=O)[C@H](CCC(=O)O)NC(=O)[C@H](CSSC[C@H](NC(=O)[C@@H](N)Cc4ccc(O)cc4)C(=O)N[C@@H](CCC(N)=O)C(=O)N[C@@H](CCCCN)C(=O)N[C@@H](Cc4c[nH]c5ccccc45)C(=O)N[C@@H](CCSC)C(=O)N[C@@H](Cc4c[nH]c5ccccc45)C(=O)N[C@@H]([C@@H](C)O)C(=O)N3)NC2=O)C(=O)N[C@@H](CCCCN)C(=O)N[C@@H](CC(C)C)C(=O)N[C@@H](Cc2c[nH]c3ccccc23)C(=O)N1)C(=O)N[C@@H](Cc1cn(CCCOCCOCCOCCOCCOCCOCCOCCOCCOCCOCCN)nn1)C(N)=O [compound 188]
IC50 ([2]; IonWorks Quattro, Table 9): 20.1 µM
IC50 ([3]; Table 9): > 5 µM
Nav1.4/Nav1.7 ([3]; Table 9): 1
IC50 ([4]; Table 9): > 5 µM

C#CC[C@H](N)C(=O)N[C@@H](CCC(=O)O)C(=O)N[C@H]1CSSC[C@@H]2NC(=O)[C@@H]3CSSC[C@@H](C(=O)N[C@@H](CCCNC(=N)N)C(=O)N[C@@H](CCCCN)C(=O)N[C@@H](CCC(=O)O)C(=O)N[C@H](C(N)=O)[C@@H](C)CC)NC(=O)[C@H](Cc4c[nH]c5ccccc45)NC(=O)[C@H](CC(C)C)NC(=O)[C@H](CCCCN)NC(=O)[C@H](CSSC[C@H](NC(=O)[C@H]([C@@H](C)O)NC(=O)[C@H](Cc4c[nH]c5ccccc45)NC(=O)[C@H](CCCC)NC(=O)[C@H](Cc4c[nH]c5ccccc45)NC(=O)[C@H](CCCCN)NC(=O)[C@H](CCC(N)=O)NC1=O)C(=O)N[C@@H](CC(=O)O)C(=O)N[C@@H](CO)C(=O)N[C@@H](CCC(=O)O)C(=O)N[C@@H](CCCNC(=N)N)C(=O)N[C@@H](C)C(=O)N3)NC(=O)[C@H](CCCNC(=N)N)NC(=O)[C@H](CC(C)C)NC(=O)CNC(=O)[C@H](CCC(=O)O)NC2=O [compound 742]
IC50 ([5]; Table 12, tonic block): 4.14 nM
IC50 [6]: 1720 nM
Nav1.4/Nav1.7 [6]: 416
Nav1.6/Nav1.7 [7]: 333
IC50 [7]: 1380 nM

C#CC[C@H](N)C(=O)N[C@@H](CCC(=O)O)C(=O)N[C@H]1CSSC[C@@H]2NC(=O)[C@@H]3CSSC[C@@H](C(=O)N[C@@H](CCCNC(=N)N)C(=O)N[C@@H](CCCCN)C(=O)N[C@@H](CCC(=O)O)C(=O)N[C@H](C(N)=O)[C@@H](C)CC)NC(=O)[C@H](Cc4c[nH]c5ccccc45)NC(=O)[C@H](CC(C)C)NC(=O)[C@H](CCCCN)NC(=O)[C@H](CSSC[C@H](NC(=O)[C@H]([C@@H](C)O)NC(=O)[C@H](Cc4c[nH]c5ccccc45)NC(=O)[C@H](CCCC)NC(=O)[C@H](Cc4c[nH]c5ccccc45)NC(=O)[C@H](CCCCN)NC(=O)[C@H](CCC(N)=O)NC1=O)C(=O)N[C@@H](CC(=O)O)C(=O)N[C@@H](CCC(=O)O)C(=O)N[C@@H](CCCCN)C(=O)N[C@@H](CCCNC(=N)N)C(=O)N[C@@H](C)C(=O)N3)NC(=O)[C@H](CCCNC(=N)N)NC(=O)[C@H](CC(C)C)NC(=O)CNC(=O)[C@H](CCC(=O)O)NC2=O [compound 739]
IC50 ([5]; Table 12, tonic block): 5.55 nM
IC50 [6]: 1280 nM
Nav1.4/Nav1.7 [6]: 231
Nav1.6/Nav1.7 [7]: 395
IC50 [7]: 2190 nM
